# Values quoted from earlier work, collected in patent US9579404B2, “Lanthanoid complex capsule and particle contrast agents, methods of making and using thereof” (New York University, priority 2011, dated 2017).
# Settings: in H2O at 9.4 T (400 MHz), 25° C.; from Siddiqui et al. 2009
structure (smiles),measurement,value
"O=C([O-])CN(CCN(CC(=O)[O-])CC(=O)[O-])CCN(CC(=O)[O-])CC(=O)[O-].[Gd+3] [Gd[DTPA]^2−, gadolinium diethylenetriamine-N,N,N′,N″N″-pentaacetate]",Relaxivity (r1) per Gd,4.6^a s^−1mM^−1
